The subject of test [1] is CFTR^ΔF508/ΔF508 epithelia. The test can be described thus: Short-circuit current (Isc) response to increasing cAMP agonist concentrations, Ussing chambers, ΔF508 epithelia. The format is cell-based, pig. The source says: (§1) These studies were done under conditions of maximal CFTR stimulation. Therefore, we also examined the response to increasing concentrations of forskolin and IBMX (at a fixed ratio of forskolin:IBMX of 1:10) (FIG. 33F,G). The EC50 for CFTR^+/+ epithelia was […]. In contrast, the EC50 for forskolin in CFTR^ΔF508/ΔF508 epithelia was 0.60±0.19
(§2) Because forskolin and IBMX might generate different cellular cAMP concentrations in CFTR^ΔF508/ΔF508 and CFTR^+/+ epithelia, we repeated the experiments with 8-CPT-cAMP, a membrane-permeable cAMP analog (FIG. 33H,I).
(§3) Epithelial tissues were excised from the nasal turbinate and septum, and from trachea through 2nd generation bronchi immediately after animals were euthanized. Tissues and cultured epithelia were studied in modified Ussing chambers. Epithelia were bathed on both surfaces with solution containing (mM): 135 NaCl, 2.4 K2HPO4, 0.6 KH2PO4, 1.2 CaCl2, 1.2 MgCl2, 10 dextrose, 5 HEPES, pH 7.4, at 37° C. and gassed with compressed air. Na-gluconate was substituted for NaCl in […] solutions. Transepithelial voltage (Vt) was maintained at 0 mV to measure short-circuit current (Isc). Transepithelial electrical conductance (Gt) was measured by intermittently clamping Vt to +5 and/or −5 mV.
(§4) A standard protocol was the following. 1) Measurements under basal conditions. 2) 100 μM apical amiloride to inhibit ENaC Na^+ channels. […]

A further test has as its system CFTR^+/+ epithelia. Description: Short-circuit current (Isc) response to increasing cAMP agonist concentrations, Ussing chambers, wild-type epithelia. The format is cell-based, pig.
Text: as §1, §2, §3, §4

The test system of another test is nasal epithelia. Description: In vivo nasal transepithelial voltage (Vt) in newborn piglets. Details: species or system pig. To be noted: sequential perfusion, amiloride 100 μM, ATP 100 μM, GlyH-101 100 μM.
Test [2] has as its system excised trachea epithelia. The test can be described thus: Electrophysiology of freshly excised tracheal epithelia in Ussing chambers. The format is cell-based, pig. To be noted: 100 μM apical.
Text: Values of transepithelial electrical conductance (Gt) were large, probably because of “edge damage” associated with clamping epithelia in Ussing chambers (Helman et al., Am. J. Physiol. Cell Physiol. 225(4):972-977, 1973) (compare with cultured epithelia in FIG. 31, 32).
as §3
A standard protocol was the following. 1) Measurements under basal conditions. 2) 100 μM apical amiloride to inhibit ENaC Na^+ channels. 3) 100 μM apical DIDS (4,4-diisothiocyano stilbene-2,2-disulfonic acid) to inhibit most anion channels other than CFTR. 4) 10 μM forskolin and 100 μM IBMX ([…]) to increase cellular levels of cAMP leading to phosphorylation and activation of CFTR. […]

Where two headings read alike, the source gives them in different places.

Results on five molecules are retold here after patent publication US8912386B2, “Transgenic pig model of cystic fibrosis” (University of Iowa Research Foundation, priority 2007, dated 2014).

Description for nasal epithelia: The transepithelial voltage (Vt) across the nasal epithelium was measured using previously described methods (Zabner et al., J. Clin. Invest. 97:1504, 1996; Standaert et al., Pediatr. Pulmonol. 37:385, 2004) under propofol anesthesia with the animal spontaneously breathing. The reference electrode was a small Ringer's solution-filled catheter inserted into the leg muscle (25 g needle). The exploring electrode was a 6 french foley catheter filled with Ringer's solution (148 mM NaCl, 2.4 mM KH2PO4, 0.4 mM K2PO4, 2.25 mM CaCl2, 1.2 mM MgCl2) inserted 4 cm into the nasal cavity, and the nasal mucosa was perfused at a rate of 5 ml/min using Ringer's solution to obtain baseline Vt. Subsequent perfusion solutions included: Ringer's solution containing 100 μM amiloride; Cl^−-free Ringer's solution containing gluconate substituted for CF plus amiloride; Cl^−-free Ringer's solution containing amiloride plus 10 μM isoproterenol; Cl^−-free Ringer's solution containing amiloride, isoproterenol, plus 100 μM ATP; Cl^−-free Ringer's solution containing amiloride, isoproterenol, ATP, plus 100 μM GlyH-101. Voltage was measured with a voltmeter connected to a strip chart recorder. Each solution was perfused for 3-5 minutes. Following completion of the measurements, the epithelium was disrupted by brushing and Vt measured again to determine the zero value of Vt.

Consider `Nc1ncnc2c1nc(Sc1ccc(Cl)cc1)n2[C@@H]1O[C@@H]2COP(=O)(O)O[C@H]2[C@H]1O` [8-CPT-cAMP], for which the EC50 in test [1] (read-out: EC50 (change in Isc with increasing 8-CPT-cAMP)) was found to be 65.2 ± 17.3 µM; in the test on CFTR^+/+ epithelia (wild-type epithelia, read-out: EC50 (change in Isc with increasing 8-CPT-cAMP)), 8 ± 1.3 µM. Turning to `N=C(N)NC(=O)c1nc(Cl)c(N)nc1N` [Amiloride, amiloride], in the test with nasal epithelia, the “Effect on nasal transepithelial voltage (Vt)” value (from here on “Effect … (Vt)”) is reported as “reduced Vt in all genotypes”. In addition, the “Effect on transepithelial conductance Gt (ΔGtamiloride)” value in test [2] (CFTR^ΔF508/ΔF508 vs CFTR^+/+) is “reduced Gt (ΔGtamiloride) to a similar extent”. For the same molecule, the “Effect on Vt and Isc (ΔVtamiloride, ΔIscamiloride)” value in test [2] (CFTR^ΔF508/ΔF508 vs wild-type) is “reduced Vt (ΔVtamiloride) and Isc (ΔIscamiloride) in CFTR^ΔF508/ΔF508 more than in wild-type epithelia”. As to `O=C(CNc1ccc2ccccc2c1)N/N=C/c1cc(Br)c(O)c(Br)c1O` [GlyH-101], the “Effect … (Vt)” value in the test with nasal epithelia is reported as “depolarized Vt in controls, but not CFTR−/− piglets”. In the case of `Nc1ncnc2c1ncn2[C@@H]1O[C@H](COP(=O)(O)OP(=O)(O)OP(=O)(O)O)[C@@H](O)[C@H]1O` [ATP], the “Effect … (Vt)” value with nasal epithelia is “further hyperpolarized Vt”.

With `C=C[C@@]1(C)CC(=O)[C@]2(O)[C@@]3(C)[C@@H](O)CCC(C)(C)[C@@H]3[C@H](O)[C@H](OC(C)=O)[C@@]2(C)O1` [forskolin], the concentration giving a half-maximal response (EC50) was 0.6 ± 0.19 µM in test [1] (Sus scrofa, increasing forskolin and IBMX at fixed ratio forskolin:IBMX 1:10, read-out: EC50 for forskolin (change in Isc)); 0.07 ± 0.01 µM with CFTR^+/+ epithelia (Sus scrofa, CFTR^+/+ epithelia, increasing forskolin and IBMX at fixed ratio forskolin:IBMX 1:10, read-out: EC50 for forskolin (change in Isc)).
